Like-named read-outs stand apart in the source and are kept apart here.

The test system of data set [1] is Escherichia coli ATCC 10536. Kind of data set: Robotic BCT test of perfume ingredients in model surfactant bases. The following applies: for Log reduction (Log CFU/mL) Base 3: Base 3: SLES 1.5%, coco-glucoside 0.75%; for Log reduction (Log CFU/mL) Base 4: Base 4: SLES 2.25%, sodium xylene sulfonate 3%; for log reduction at 0.5 %: Escherichia coli, ATCC10536, 45 s. The data set is classed as cell-based. On the procedure: The surfactant bases tested included 1) sodium lauryl ether sulfate (SLES) and cocamidopropyl betaine (CAPB) at 3:1 mass ratios; 2) SLES, CAPB and coco-glucoside at 2:1:1 mass ratios. Test samples were prepared by mixing perfume ingredients with the surfactant bases and vigorously stirred for 24 hrs. Concentration of perfume ingredients in the bases was 0.5% wt. Samples with transparent appearance were selected for antimicrobial testing.
Antimicrobial efficacy was tested against a representative Gram-negative bacterial strain, Escherichia coli ATCC 10536, using robotic bacteria contact time (BCT) test based on European standard EN-1276 and EP2787827(B1).
Preparation of screening plate and dilution plate: Aliquots (270 µl) of compositions were dispensed into the wells of a 96-well microtiter plate (MTP) along two columns (B1-H1, and B7-H7), and 270 µl of MilliQ water was added to well A1 and A7 as the control samples. This MTP was labelled as the “Screening plate”. In another MTP, labelled as the “Dilution plate”, 270 µL of Dey-Engley (D/E) neutralizing solution was added to column 1 and column 7. 270 µl of tryptone diluent solution was added to columns 2-6 and columns 8-12 of the Dilution MTP by a Hamilton robotic liquid handling station.
BCT test & neutralization & dilution: Bacterial stock (30 µl) was then added to columns 1 of the ‘Screening plate’ and mixed by a Hamilton robotic liquid handling station. After a contact time of 45 seconds, 30 µl of the mixtures in column 1 were transferred into the corresponding wells of column 1 of the ‘Dilution plate’. After neutralizing for 5 minutes in the D/E neutralizing solution, 30 µl of the neutralized mixtures were transferred from column 1 to column 2 of the Dilution MTP and mixed, followed by transferring 30 µl of the mixtures from column 2 into column 3. This process was repeated serially diluting the bacteria suspensions across the plate to column 6. Bacterial stock (30 µl) was then added to columns 7 of the ‘Screening plate’ and mixed by a Hamilton robotic liquid handling station. After a contact time of 45 seconds, 30 µl of the mixtures in column 7 were transferred into the corresponding wells of column 7 of the ‘Dilution plate’. After neutralizing for 5 minutes in the D/E neutralizing solution, 30 µl of the mixtures were transferred from column 7 to column 8 of the Dilution MTP and mixed, followed by transferring further 30 µl mixtures from column 8 into column 9. This process was repeated serially diluting the bacteria suspensions across the plate to column 12.
Plating: 30 µl volumes from each well in the Dilution MTP were transferred onto four Tryptone Soya Agar (TSA) plates. The TSA plates were allowed to stand for about two hours so that the 30 µl inocula spots could dry and the plates were then inverted and incubated overnight at 37° C. for 24 hours. After incubation, colonies were counted.
Calculating log reduction: Select the dilutions with colony counts, and calculate the viable cell counts (CFU/mL) of mixture in ‘Screening plate’, and log reduction against the control MilliQ sample was calculated.

The nature of data set [2]: Equivalent alkane carbon number (EACN) in model microemulsion system. The data set is classed as physicochemical. The following applies: C10E5/water/isopropyl myristate model system, 3% wt perfume ingredient. As for the experimental part:
EACN values provide information on polarity and surface activity of apolar ingredients. Tchakalova and Fieber (J. of Surfactants and Detergents, 2012, 15(2):167-177) classified perfume ingredients based on values of EACNmix, the EACN of a mixture consisting of a test perfume ingredient and a reference oil (isopropyl myristate). The same model system and method were used to measure the EACN values of perfume ingredients with antimicrobial activities. Different perfume ingredients were added to the model microemulsion system shown in Table 1, in which the nonionic pentaethylene glycol mono n-decyl ether (C10E5) was used as surfactant. Phase transition temperatures of the system from Winsor I to Winsor III, and from Winsor III to Winsor II were determined using a water bath. Alkanes with different alkane carbon numbers (octane, decane, dodecane and hexadecane) were used to establish a linear correlation curve between EACN and the PIT, which is the average of the transitions from Winsor I to Winsor III, and from Winsor III to Winsor II, respectively. EACNmix was then calculated based on the linear relationship and the measured PIT for systems containing different perfume ingredients. The EACN of the pure perfume ingredient was calculated based on the molar ratio of the tested PRMs in the oil phase using following equation: […]
wherein n and nref are the molar fractions of tested perfume ingredient and the reference ingredient (i.e., isopropyl myristate) in the oil phase, respectively.

Data set [3] in a line: physchem. It counts as physicochemical. As for the experimental part: The partition coefficient (P) is defined as the ratio of the concentrations (C) to the equilibrium of a dissolved and highly diluted substance in a biphasic system consisting of two almost immiscible solvents.
In the case of n-octanol and water:
The partition coefficient P is the quotient of two concentrations, it is generally indicated in its logarithmic form, base 10 (LogP).
The log P values of different perfume ingredients were measured using standard high performance liquid chromatography method, according to the reference (OECD, guideline No. 117, adopted on 13 Apr. 2004, Partition coefficient (n-octanol-water), High Performance Liquid Chromatography (HPLC) Method).

Data set [4] has as its system E. coli ATCC 10536. In words: Bacterial contact time (BCT) test of perfume ingredients in 20% ethanol solution (EN-1276 based). It counts as cell-based, Escherichia coli. The following applies: 20% EtOH, 45 s. As for the experimental part: Bacterial suspensions of E. coli ATCC 10536 were prepared for antimicrobial testing as follows. Stock cultures stored at -80° C. were sub-cultured onto Tryptic Soy Agar (TSA) plate, and incubated at 37° C. for 24 h to obtain single colonies. Single colonies of the primary cultures were streaked onto TSA plates and incubated at 37° C. for 24 h to prepare the secondary cultures. Single colonies of secondary cultures were inoculated into 50 mL of Tryptic Soy broth (TSB), incubated at 37° C. 180 rpm for 18 h. Aliquots (0.5 ml) of the 18 h culture were inoculated into 50 ml of fresh TSB, and incubated at 37° C. 180 rpm for 2- 3 hours. When the OD600 nm value of the broth reached 1-2, cells were harvested by centrifugation at 5,000 rpm for 10 min, and then resuspended in the same fresh broth media to achieve the target level of 1-5 × 10^8 colony forming unit (CFU)/mL. This suspension was used for further antimicrobial tests.
Unless indicated otherwise, log reduction testing according to the present invention is determined in accordance with the following method.
Bacterial contact time (BCT) test based on European standard EN-1276 was used to determine dose dependent bactericidal activity of perfume ingredients in 20% ethanol solutions.
Perfume ingredients of various concentrations (doses) were prepared in 40% ethanol solutions. Eleven replicates of each sample were added into 96-well microtiter plates (120 µl per well) in column 1-11 of one row, with row B as the control sample of the ethanol solution. Then, 120 µl of cell suspension at a concentration of approximately 1-5 × 10^8 CFU/ML (as prepared above) were added to each well of the microtiter plate. A specified contact time (45 s) was allowed for target bacterial strains. At the end of the contact time, serial dilutions were prepared in 96 well plates with growth media: 3 times of 1 in 10 dilutions and followed by 17 times of 1 in 2 dilutions. Each plate was sealed and incubated at 37° C. under agitation (180 rpm). After incubation, turbidity of the wells (OD 600 nm) was recorded by Tecan microplate reader. Turbid cells were regarded as positive growth of viable cells. The total number of viable cells (log CFU/mL) for each sample was calculated. And the log reduction for each test composition at the final concentration (dose) was calculated against the control sample of the 20% ethanol solution.
Table 20 show the bactericidal dose related effect (log reduction) and calculated effect fraction of the Mixture C and compositions against E. coli ATCC 10536. Stock of compositions were prepared in 100% ethanol, then diluted in MilliQ water to obtain 2 × final concentration in 40% ethanol. BCT tests were conducted on samples against E. coli for a contact time of 45 s.

The mark [5] stands for this setting: 0.5% perfume ingredient, CAPB 0.75%, contact 45 s.
The mark [6] stands for this setting: n-octanol/water, HPLC method, read-out: Log P.
Setting [7] is: 0.5% perfume ingredient, Base 1: SLES 1.875%, CAPB 0.625%, contact 45 s, read-out: Log reduction in Base 1 (Log CFU/mL).
Where [8] appears, read: 0.5% perfume ingredient, Base 2: SLES 2.25%, CAPB 0.75%, contact 45 s, read-out: Log reduction (Log CFU/mL) Base 2.

The Log P is a log measure of how a compound divides between an organic and an aqueous phase. As for `C=C(C)[C@@H]1CC=C(CO)CC1` [(-)-(S)-1,8-P-menthadien-7-ol], in data set [1] (0.5% perfume ingredient, Base 1: SLES 1.875%, CAPB 0.625%, contact 45 s), the “Log reduction in Base 1 (Log CFU/mL)” value was found to be 4.2 ± 0.1 Log CFU/mL. Besides, the “Log reduction (Log CFU/mL) Base 2” value in data set [1] (0.5% perfume ingredient, Base 2: SLES 2.25%, CAPB 0.75%, contact 45 s) came out at 0 Log CFU/mL. Moreover, in data set [1] (setting [5]), the “Log reduction (Log CFU/mL) Base 3” value was 1.4 Log CFU/mL and the “Log reduction (Log CFU/mL) Base 4” value is given as 2.2 Log CFU/mL. Also, in data set [1] (model base 1, table by functional group), the “Log reduction in Base 1 (Log CFU/mL)” value was found to be 4.2 Log CFU/mL. In addition, the EACN in data set [2] was -30.83. Besides, the lipophilicity (Log P) in data set [3] turned out to be 2.68.
Regarding `C/C(=C\c1ccc(C)cc1)CO` [(2E)-2-methyl-3-(4-methylphenyl)-2-propen-1-ol], the EACN in data set [2] is -36.15. The chromatographic logP in data set [3] (setting [6]) was 2.29.
For the compound `CCCc1ccc(O)c(OC)c1` [2-methoxy-4-propyl phenol], in data set [2], the EACN is listed as -34.16. In addition, the chromatographic logP in data set [3] (setting [6]) came to 2.39.
Regarding `COC(=O)c1ccccc1N` [methyl 2-aminobenzoate], the EACN in data set [2] is reported as -22.57. Further, in data set [3] (setting [6]), the chromatographic logP came out at 1.83.
As to `O=C1CCC[C@H]2[C@@H]1[C@H]1C=C[C@@H]2C1` (racemic) [(1RS,2SR,7RS,8SR)-tricyclo[6.2.1.0^~2,7^~]undec-9-en-3-one OR (1RS,2RS,7S,8SR)-tricyclo[6.2.1.0^~2, 7^~] undec-9-en-3-one], the EACN in data set [2] is -5.81. Moreover, the “Log P” value in data set [3] was 2.53.
On to `CCC/C=C/CO` [(2E)-2-hexen-1-ol], for which, in data set [1] (setting [7]), the log reduction at 0.5 % is -0.2. For the same compound, the EACN in data set [2] was -21.91. This compound registered a chromatographic logP in data set [3] of 1.73.
With `CC(C)=CCC/C(C)=C/CO` [(E)-3,7-dimethyl-2,6-octadien-1-ol], in data set [1] (setting [5]), the “Log reduction (Log CFU/mL) Base 3” value turned out to be 4.2 Log CFU/mL. The “Log reduction (Log CFU/mL) Base 4” value in data set [1] (setting [5]) was “Insoluble”. The log reduction at 0.5 % in data set [1] (setting [7]) was over 5.4; in data set [1] (setting [8]), 0.5; in data set [1] (model base 1, table by functional group, read-out: Log reduction in Base 1 (Log CFU/mL)) it was over 5.5. The EACN in data set [2] is given as -28.65. Besides, the Effect fraction in data set [4] (dose 0.040% w/v) is -0.020; in data set [4] (dose 0.050% w/v), 0.130; in data set [4] (dose 0.055% w/v), 0.350; in data set [4] (dose 0.060% w/v) it was 0.660; in data set [4] (dose 0.070% w/v) it was 1.000. For the same compound, the Log reduction in data set [4] (dose 0.040% w/v) is on record as -0.175; in data set [4] (dose 0.050% w/v), 0.909; in data set [4] (dose 0.055% w/v) it was 2.474; in data set [4] (dose 0.060% w/v) it was 4.760; in data set [4] (dose 0.070% w/v), 7.160.
As for `N#C/C=C/c1ccccc1` [(E)-3-phenyl-2-propenenitrile], the EACN in data set [2] is -14.36. In addition, the chromatographic logP in data set [3] (setting [6]) was found to be 1.98.
Consider `CCCCCC1CCC(=O)O1` (racemic) [(+-)-4-nonanolide], for which the EACN in data set [2] is -11.24. Moreover, in data set [3] (setting [6]), the chromatographic logP was determined as 2.45.
For the compound `CC1=CC[C@H]([C@H](C)CCO)CC1` (single isomer, unassigned), the EACN in data set [2] is on record as -34.57. Further, the “Log P” value in data set [3] is on record as 3.46.
For `CCC/C=C/COC(C)=O` [(E)-2-hexenyl acetate], the EACN in data set [2] worked out at 1.12. The chromatographic logP in data set [3] (setting [6]) was 2.59.
`CC/C=C\CCCCCO` [(Z)-6-nonen-1-ol]: the EACN in data set [2] is given as -29.91. Moreover, the “Log P” value in data set [3] was 3.4.
The corresponding values for `C=C/C(C)=C\CC1OC1(C)C` (racemic) [(+-)-(2,2-dimethyl-3-[(2Z)-3-methyl-2,4-pentadien-1-yl]oxirane OR (+-)-(2,2-dimethyl-3-[(2E)-3-methyl-2,4-pentadien-1-yl]oxirane] are -1.45 and 2.92.
As for `CC1=C(C=O)C(C)(C)CC=C1` [2,6,6-trimethyl-1,3-cyclohexadiene-1-carbaldehyde], the EACN in data set [2] is given as -6.62. The chromatographic logP in data set [3] (setting [6]) is 2.57.
Regarding `CCOC(=O)/C=C/c1ccccc1` [Ethyl(E)-3-phenyl-2-propenoate], in data set [1] (setting [5]), the “Log reduction (Log CFU/mL) Base 3” value is “Insoluble” and the “Log reduction (Log CFU/mL) Base 4” value is reported as “Insoluble”. The log reduction at 0.5 % in data set [1] (setting [7]) came to 1.9 ± 1. The log reduction at 0.5 % in data set [1] (setting [8]) is 0. Besides, in data set [3] (setting [6]), the chromatographic logP was 3.

The values above are taken from US20230105693A1, “ANTIMICROBIAL COMPOSITIONS” (Firmenich SA, priority 2020, published 2023).
